Tested on: MV-4-11 cells
Experiment: Gene expression microarray analysis (Affymetrix PrimeView) and GSEA
Assay type: cell-based, human
Set-up: RFU PODN (11730768_x_at) / Fold change /veh PODN (11730768_x_at) / RFU LINC00158 (11744669_a_at) / Fold change /veh LINC00158 (11744669_a_at) / RFU DUSP10 (11751237_a_at) / Fold change /veh DUSP10 (11751237_a_at) / RFU ID3 (11757404_x_at) / Fold change /veh ID3 (11757404_x_at) / RFU PLEKHG5 (11737974_s_at) / Fold change /veh PLEKHG5 (11737974_s_at) / RFU LRRC4B (11730491_at) / Fold change /veh LRRC4B (11730491_at) / RFU GIMAP4 (11747438_a_at) / Fold change /veh GIMAP4 (11747438_a_at) / RFU KRT8 (11758183_x_at) / Fold change /veh KRT8 (11758183_x_at) / RFU CNN1 (11734310_a_at) / Fold change /veh CNN1 (11734310_a_at) / RFU VPS37D (11726825_at) / Fold change /veh VPS37D (11726825_at) / RFU C10orf10 (11716522_x_at) / Fold change /veh C10orf10 (11716522_x_at) / RFU KIR2DL2 /// KIR2DL4 /// KIR2DL5A /// KIR2DL5B /// KIR2DS1 /// KIR2DS2 /// KIR2DS3 /// KIR2DS4 /// KIR3DL3 /// KIR3DL3 /// KIR3DS1 (11738374_at) / Fold change /veh KIR2DL2 /// KIR2DL4 /// KIR2DL5A /// KIR2DL5B /// KIR2DS1 /// KIR2DS2 /// KIR2DS3 /// KIR2DS4 /// KIR3DL3 /// KIR3DL3 /// KIR3DS1 (11738374_at) / RFU C1QL1 (11718748_at) / Fold change /veh C1QL1 (11718748_at) / RFU TMPRSS4 (11747572_a_at) / Fold change /veh TMPRSS4 (11747572_a_at) / RFU HAMP (11756126_x_at) / Fold change /veh HAMP (11756126_x_at) / RFU RNFT2 (11725882_a_at) / Fold change /veh RNFT2 (11725882_a_at) / RFU NR4A2 (11747474_a_at) / Fold change /veh NR4A2 (11747474_a_at) / RFU ABCC12 (11746883_a_at) / Fold change /veh ABCC12 (11746883_a_at) / RFU TMEM136 (11760407_x_at) / Fold change /veh TMEM136 (11760407_x_at) / RFU CLDN22 /// WWC2 (11732394_at) / Fold change /veh CLDN22 /// WWC2 (11732394_at) / RFU HLA-DPB1 (11760878_x_at) / Fold change /veh HLA-DPB1 (11760878_x_at) / RFU SPINT1 (11716480_a_at) / Fold change /veh SPINT1 (11716480_a_at) / RFU GAP43 (11754022_s_at) / Fold change /veh GAP43 (11754022_s_at) / RFU A4GNT (11735810_at) / Fold change /veh A4GNT (11735810_at) / RFU PRB3 (11715151_x_at) / Fold change /veh PRB3 (11715151_x_at) / RFU TUBB4B (11761932_at) / Fold change /veh TUBB4B (11761932_at) / RFU CAPN14 (11732068_a_at) / Fold change /veh CAPN14 (11732068_a_at) / RFU TMCC2 (11721928_a_at) / Fold change /veh TMCC2 (11721928_a_at) / RFU IRGQ (11745062_a_at) / Fold change /veh IRGQ (11745062_a_at) / RFU FAM174B (11720279_a_at) / Fold change /veh FAM174B (11720279_a_at) / RFU TMPRSS4 (11748680_a_at) / Fold change /veh TMPRSS4 (11748680_a_at) / RFU FAM212B (11763350_a_at) / Fold change /veh FAM212B (11763350_a_at) / RFU PLEKHG5 (11743358_a_at) / Fold change /veh PLEKHG5 (11743358_a_at) / RFU ZSCAN30 (11745921_a_at) / Fold change /veh ZSCAN30 (11745921_a_at) / RFU CMKLR1 (11741424_a_at) / Fold change /veh CMKLR1 (11741424_a_at) / RFU LOC101060620 /// MAPK8IP1 (11723275_at) / Fold change /veh LOC101060620 /// MAPK8IP1 (11723275_at) / RFU SPTSSB (11747773_x_at) / Fold change /veh SPTSSB (11747773_x_at) / RFU PRSS12 (11739890_at) / Fold change /veh PRSS12 (11739890_at) / RFU BIN1 (11741810_x_at) / Fold change /veh BIN1 (11741810_x_at) / RFU WNT11 (11732464_a_at) / Fold change /veh WNT11 (11732464_a_at) / RFU C10orf10 (11716521_a_at) / Fold change /veh C10orf10 (11716521_a_at) / RFU C5orf56 (11738089_at) / Fold change /veh C5orf56 (11738089_at) / RFU CYB561 (11721691_x_at) / Fold change /veh CYB561 (11721691_x_at) / RFU ANKRD19P (11752326_a_at) / Fold change /veh ANKRD19P (11752326_a_at) / RFU OR2T12 /// OR2T33 /// OR2T8 (11738714_s_at) / Fold change /veh OR2T12 /// OR2T33 /// OR2T8 (11738714_s_at) / RFU VCAN (11748164_a_at) / Fold change /veh VCAN (11748164_a_at) / RFU JSRP1 (11732532_at) / Fold change /veh JSRP1 (11732532_at) / RFU KRTAP10-11 (11738290_x_at) / Fold change /veh KRTAP10-11 (11738290_x_at) / RFU MYO3A (11730013_a_at) / Fold change /veh MYO3A (11730013_a_at) / RFU EBF3 (11725865_a_at) / Fold change /veh EBF3 (11725865_a_at) / RFU CAMK2N1 (11719241_x_at) / Fold change /veh CAMK2N1 (11719241_x_at) / RFU C5orf56 (11738088_a_at) / Fold change /veh C5orf56 (11738088_a_at) / RFU OLFML3 (11715873_a_at) / Fold change /veh OLFML3 (11715873_a_at) / RFU LOC100653217 /// NTM (11731650_a_at) / Fold change /veh LOC100653217 /// NTM (11731650_a_at) / RFU MAPK11 (11762145_a_at) / Fold change /veh MAPK11 (11762145_a_at) / RFU FIZ1 (11724087_x_at) / Fold change /veh FIZ1 (11724087_x_at) / RFU OASL (11726364_x_at) / Fold change /veh OASL (11726364_x_at) / RFU SOX15 (11748057_x_at) / Fold change /veh SOX15 (11748057_x_at) / RFU CD79A (11719716_a_at) / Fold change /veh CD79A (11719716_a_at) / RFU HIST1H1D (11736915_at) / Fold change /veh HIST1H1D (11736915_at) / RFU CASKIN2 (11723855_a_at) / Fold change /veh CASKIN2 (11723855_a_at) / RFU LOC730098 (11760151_x_at) / Fold change /veh LOC730098 (11760151_x_at) / RFU OR4N2 (11742367_at) / Fold change /veh OR4N2 (11742367_at) / RFU PRRT2 (11749266_a_at) / Fold change /veh PRRT2 (11749266_a_at) / RFU SNX32 (11753110_a_at) / Fold change /veh SNX32 (11753110_a_at) / RFU CDHR5 (11726645_a_at) / Fold change /veh CDHR5 (11726645_a_at) / RFU RCAN1 (11760418_a_at) / Fold change /veh RCAN1 (11760418_a_at) / RFU FAM167A (11723789_a_at) / Fold change /veh FAM167A (11723789_a_at) / RFU FAM26E (11764081_at) / Fold change /veh FAM26E (11764081_at) / RFU ISYNA1 (11749810_s_at) / Fold change /veh ISYNA1 (11749810_s_at) / RFU ACY1 (11761880_at) / Fold change /veh ACY1 (11761880_at) / RFU 11764098_at / Fold change /veh 11764098_at / RFU SAMD14 (11745864_x_at) / Fold change /veh SAMD14 (11745864_x_at) / RFU NPB (11741838_a_at) / Fold change /veh NPB (11741838_a_at) / RFU TMPRSS6 (11731388_a_at) / Fold change /veh TMPRSS6 (11731388_a_at) / RFU KRTAP10-2 (11738614_at) / Fold change /veh KRTAP10-2 (11738614_at) / RFU ARHGAP8 /// PRR5-ARHGAP8 (11727945_x_at) / Fold change /veh ARHGAP8 /// PRR5-ARHGAP8 (11727945_x_at) / RFU KRTAP5-7 /// NADSYN1 (11734609_at) / Fold change /veh KRTAP5-7 /// NADSYN1 (11734609_at) / RFU RASL12 (11751679_a_at) / Fold change /veh RASL12 (11751679_a_at) / RFU CDKN2B (11736163_a_at) / Fold change /veh CDKN2B (11736163_a_at) / RFU PRF1 (11729649_at) / Fold change /veh PRF1 (11729649_at) / RFU, ZNF638 /// ZNF638-IT1 / Fold change vs veh, ZNF638 /// ZNF638-IT1 / RFU, PANK3 / Fold change vs veh, PANK3 / RFU, SH3YL1 / Fold change vs veh, SH3YL1 / RFU, ZEB2 / Fold change vs veh, ZEB2 / RFU, NRIP1 / Fold change vs veh, NRIP1 / RFU, PTTG1IP / Fold change vs veh, PTTG1IP / RFU, CAPN2 / Fold change vs veh, CAPN2 / RFU, MED14 / Fold change vs veh, MED14 / RFU, SNORA58 / Fold change vs veh, SNORA58 / RFU, C1orf63 / Fold change vs veh, C1orf63 / RFU, LRRFIP1 / Fold change vs veh, LRRFIP1 / RFU, NDUFAF7 / Fold change vs veh, NDUFAF7 / RFU, SLC12A2 / Fold change vs veh, SLC12A2 / RFU, IBTK / Fold change vs veh, IBTK / RFU, ESF1 / Fold change vs veh, ESF1 / Fold change vs veh, TMEM50B / RFU, TAOK1 / Fold change vs veh, TAOK1 / RFU, ACBD3 / Fold change vs veh, ACBD3 / RFU, TMA16 / Fold change vs veh, TMA16 / RFU, RWDD3 / Fold change vs veh, RWDD3 / RFU, BCAT1 / Fold change vs veh, BCAT1 / RFU, EDEM3 / Fold change vs veh, EDEM3 / RFU, TMEM33 / Fold change vs veh, TMEM33 / RFU, WDR75 / Fold change vs veh, WDR75 / RFU, AHCTF1 / Fold change vs veh, AHCTF1 / RFU, TFRC / Fold change vs veh, TFRC / RFU, ZDHHC17 / Fold change vs veh, ZDHHC17 / RFU, NOM1 / Fold change vs veh, NOM1 / RFU, ARL8B / Fold change vs veh, ARL8B / RFU, ZBTB11 / Fold change vs veh, ZBTB11 / RFU, TAMM41 / Fold change vs veh, TAMM41 / RFU, KIAA1704 /// LOC100996395 / Fold change vs veh, KIAA1704 /// LOC100996395 / RFU, ING1 / Fold change vs veh, ING1 / RFU, TRMT61B / Fold change vs veh, TRMT61B / RFU, FUBP3 / Fold change vs veh, FUBP3 / RFU, TP53 / Fold change vs veh, TP53 / RFU, TNKS2 / Fold change vs veh, TNKS2 / RFU, ZFP14 / Fold change vs veh, ZFP14 / RFU, ACTR2 / Fold change vs veh, ACTR2 / RFU, PPP3R1 / Fold change vs veh, PPP3R1 / RFU, PIK3R1 / Fold change vs veh, PIK3R1 / RFU, HNRNPA1 / Fold change vs veh, HNRNPA1 / RFU, RNF170 / Fold change vs veh, RNF170 / RFU, ZNF28 / Fold change vs veh, ZNF28 / RFU, RNGTT / Fold change vs veh, RNGTT / RFU, OGT / Fold change vs veh, OGT / RFU, BRD1 / Fold change vs veh, BRD1 / RFU, MARS / Fold change vs veh, MARS / RFU, ZNF655 / Fold change vs veh, ZNF655 / RFU, FAHD1 / Fold change vs veh, FAHD1 / RFU, BDP1 / Fold change vs veh, BDP1 / RFU, LRRCC1 / Fold change vs veh, LRRCC1 / RFU, ARID1A / Fold change vs veh, ARID1A / RFU, ZNF146 / Fold change vs veh, ZNF146 / RFU, ZNF330 / Fold change vs veh, ZNF330 / RFU, GPN3 / Fold change vs veh, GPN3 / RFU, C9orf123 / Fold change vs veh, C9orf123 / RFU, N4BP2L2 / Fold change vs veh, N4BP2L2 / RFU, ARFIP1 / Fold change vs veh, ARFIP1 / RFU, FAM179B / Fold change vs veh, FAM179B / RFU, BCL10 / Fold change vs veh, BCL10 / RFU, UHRF1BP1L / Fold change vs veh, UHRF1BP1L / RFU, BET1 / Fold change vs veh, BET1 / RFU, CNOT2 / Fold change vs veh, CNOT2 / RFU, ZNF268 / Fold change vs veh, ZNF268 / Fold change vs veh, ZNF507 / RFU, DGCR2 / Fold change vs veh, DGCR2 / RFU, WDSUB1 / Fold change vs veh, WDSUB1 / Fold change vs veh, HSP90B1 /// MIR3652 / RFU, ADSS / Fold change vs veh, ADSS / RFU, GK / Fold change vs veh, GK / RFU, ZNF148 / Fold change vs veh, ZNF148 / RFU, TAF9 / Fold change vs veh, TAF9 / RFU, SLC1A5 / Fold change vs veh, SLC1A5 / RFU, SLMO2 / Fold change vs veh, SLMO2 / RFU, ABCC4 / Fold change vs veh, ABCC4 / RFU, LOC101060439 /// RAP1B / Fold change vs veh, LOC101060439 /// RAP1B / RFU, RFX7 / Fold change vs veh, RFX7 / RFU, GTPBP10 / Fold change vs veh, GTPBP10 / RFU, CNEP1R1 / Fold change vs veh, CNEP1R1 / RFU, BIVM-ERCC5 /// ERCC5 / Fold change vs veh, BIVM-ERCC5 /// ERCC5 / RFU, ILF3 / Fold change vs veh, ILF3 / RFU 11762660_at / Fold change /veh 11762660_at / RFU VCAN (11757783_s_at) / Fold change /veh VCAN (11757783_s_at) / RFU DDX43 (11728927_at) / Fold change /veh DDX43 (11728927_at) / RFU KRT8 (11758188_x_at) / Fold change /veh KRT8 (11758188_x_at) / RFU NKD1 (11759106_at) / Fold change /veh NKD1 (11759106_at) / RFU SRD5A1 (11742802_a_at) / Fold change /veh SRD5A1 (11742802_a_at) / RFU TPSAB1 /// TPSB2 (11721975_s_at) / Fold change /veh TPSAB1 /// TPSB2 (11721975_s_at) / RFU GSTM3 (11746129_a_at) / Fold change /veh GSTM3 (11746129_a_at) / RFU IL23R (11737362_x_at) / Fold change /veh IL23R (11737362_x_at) / RFU TMEM51 (11727254_a_at) / Fold change /veh TMEM51 (11727254_a_at) / RFU PIWIL2 (11732686_x_at) / Fold change /veh PIWIL2 (11732686_x_at) / RFU ORM1 (11744905_x_at) / Fold change /veh ORM1 (11744905_x_at) / RFU CCDC152 (11743942_at) / Fold change /veh CCDC152 (11743942_at) / RFU ECM1 (11717891_a_at) / Fold change /veh ECM1 (11717891_a_at) / RFU IL23R (11748794_a_at) / Fold change /veh IL23R (11748794_a_at) / RFU TNFAIP8L3 (11732012_x_at) / Fold change /veh TNFAIP8L3 (11732012_x_at) / RFU MBOAT4 (11741988_at) / Fold change /veh MBOAT4 (11741988_at) / RFU 11764193_at / Fold change /veh 11764193_at / RFU TMEM53 (11763286_at) / Fold change /veh TMEM53 (11763286_at) / RFU MAGEB2 (11727129_at) / Fold change /veh MAGEB2 (11727129_at) / RFU TMEM200A (11744735_a_at) / Fold change /veh TMEM200A (11744735_a_at) / RFU CCDC152 (11751479_a_at) / Fold change /veh CCDC152 (11751479_a_at) / RFU FAM211A (11726209_a_at) / Fold change /veh FAM211A (11726209_a_at) / RFU RGS16 (11746705_a_at) / Fold change /veh RGS16 (11746705_a_at) / RFU VCAN (11755009_s_at) / Fold change /veh VCAN (11755009_s_at) / RFU RHOB (11743442_s_at) / Fold change /veh RHOB (11743442_s_at) / RFU RGS16 (11720943_a_at) / Fold change /veh RGS16 (11720943_a_at) / RFU RGS16 (11720944_at) / Fold change /veh RGS16 (11720944_at) / RFU, VPS4B / Fold change vs veh, VPS4B / RFU, CREB1 / Fold change vs veh, CREB1 / RFU, DNAJC13 / Fold change vs veh, DNAJC13 / RFU, GNAQ / Fold change vs veh, GNAQ / RFU, CDK5R1 / Fold change vs veh, CDK5R1 / RFU, ZRANB3 / Fold change vs veh, ZRANB3 / RFU, CUL4A / Fold change vs veh, CUL4A / RFU, CCNY / Fold change vs veh, CCNY / RFU, UFL1 / Fold change vs veh, UFL1 / RFU, COG3 / Fold change vs veh, COG3 / RFU, DIAPH2 / Fold change vs veh, DIAPH2 / RFU, SKA2 / Fold change vs veh, SKA2 / RFU, AFF3 / Fold change vs veh, AFF3 / RFU, LMF1 / Fold change vs veh, LMF1 / RFU, IPO11 / Fold change vs veh, IPO11 / RFU, DFFB / Fold change vs veh, DFFB / RFU, FOXP1 / Fold change vs veh, FOXP1 / RFU, CARD8 / Fold change vs veh, CARD8 / RFU, STRN3 / Fold change vs veh, STRN3 / RFU, ADK / Fold change vs veh, ADK / RFU, RASSF2 / Fold change vs veh, RASSF2 / RFU, WIPF1 / Fold change vs veh, WIPF1 / RFU, LARP1B / Fold change vs veh, LARP1B / RFU, RASA1 / Fold change vs veh, RASA1 / RFU, RB1 / Fold change vs veh, RB1 / RFU, PPFIA1 / Fold change vs veh, PPFIA1 / RFU, MAT2A / Fold change vs veh, MAT2A / RFU, CCT5 / Fold change vs veh, CCT5 / RFU, WDR92 / Fold change vs veh, WDR92 / RFU, CUX1 / Fold change vs veh, CUX1 / RFU, TTC7A / Fold change vs veh, TTC7A / RFU, TMEM135 / Fold change vs veh, TMEM135 / RFU, DEPTOR / Fold change vs veh, DEPTOR / RFU, CPM / Fold change vs veh, CPM / RFU, DNAJB6 / Fold change vs veh, DNAJB6 / RFU, CACNA2D3 / Fold change vs veh, CACNA2D3 / RFU, DTX4 / Fold change vs veh, DTX4 / RFU, TFCP2 / Fold change vs veh, TFCP2 / RFU, GMCL1 /// GMCL1P1 / Fold change vs veh, GMCL1 /// GMCL1P1 / RFU, AEBP2 / Fold change vs veh, AEBP2 / RFU, SNHG1 /// SNORD22 /// SNORD25 /// SNORD26 /// SNORD27 /// SNORD28 /// SNORD29 /// SNORD31 / Fold change vs veh, SNHG1 /// SNORD22 /// SNORD25 /// SNORD26 /// SNORD27 /// SNORD28 /// SNORD29 /// SNORD31 / Fold change (Aza/veh), C12orf56 (ProbeSet 11735607_a_at) / Fold change (ACY-1035/veh), C12orf56 (ProbeSet 11735607_a_at) / Fold change (Aza/veh), FGFR1OP (ProbeSet 11751329_s_at) / Fold change (ACY-1035/veh), FGFR1OP (ProbeSet 11751329_s_at) / Fold change (Aza/veh), VPS36 (ProbeSet 11739960_a_at) / Fold change (ACY-1035/veh), VPS36 (ProbeSet 11739960_a_at) / RFU SYPL1 (11715823_x_at) / Fold change /veh SYPL1 (11715823_x_at) / RFU IGFBP7 (11715501_s_at) / Fold change /veh IGFBP7 (11715501_s_at) / RFU REEP3 (11722064_at) / Fold change /veh REEP3 (11722064_at) / RFU IGLL1 (11728026_x_at) / Fold change /veh IGLL1 (11728026_x_at): dose or concentration left out as unconfirmed
Details: ProbeSet 11743362_s_at; LIST B

Nc1ncn([C@@H]2O[C@H](CO)[C@@H](O)[C@H]2O)c(=O)n1 [azacitidine]
RFU, ADSS: 624.28 RFU
